For one compound, inhibition results are on record in patent EP0880540B1, “17-BETA-CYCLOPROPYL(AMINO/OXY) 4-AZA STEROIDS AS ACTIVE INHIBITORS OF TESTOSTERONE 5-ALPHA-REDUCTASE AND C17-20-LYASE” (Aventis Pharmaceuticals Inc., priority 1996, dated 1997).

Each structure is given as a SMILES string.

What is called inhibition is how much of the control response was suppressed.

This test addresses T1, Rat testicular C17,20 lyase (Rattus norvegicus, UniProt P11715).
T1 construct: testes were excised, capsules were removed, and the tissue was weighed; from tissue; host or cells: testes of male Copenhagen rats (Harlan Laboratories), 10,000 x G supernatant of homogenate
T1 sequence (P11715 1-507): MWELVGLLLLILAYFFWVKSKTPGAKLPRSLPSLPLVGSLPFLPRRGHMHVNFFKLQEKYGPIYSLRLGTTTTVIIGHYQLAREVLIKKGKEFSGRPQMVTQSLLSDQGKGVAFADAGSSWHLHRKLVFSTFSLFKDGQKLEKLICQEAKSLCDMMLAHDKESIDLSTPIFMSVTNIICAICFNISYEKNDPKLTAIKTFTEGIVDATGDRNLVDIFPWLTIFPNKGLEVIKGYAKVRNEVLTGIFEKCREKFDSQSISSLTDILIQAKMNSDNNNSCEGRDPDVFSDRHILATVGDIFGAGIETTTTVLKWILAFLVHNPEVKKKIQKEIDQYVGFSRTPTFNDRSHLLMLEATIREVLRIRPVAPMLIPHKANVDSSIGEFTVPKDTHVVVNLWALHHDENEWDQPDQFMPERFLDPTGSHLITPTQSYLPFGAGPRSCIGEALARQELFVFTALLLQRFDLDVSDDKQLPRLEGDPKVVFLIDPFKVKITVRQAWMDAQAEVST
The test is described as follows: Ex vivo inhibition of C17,20 lyase in rat testes after dosing. More on the design: species or system Male Copenhagen rats. The procedure: Ex vivo inhibition of C17,20 lyase: MDL 103,432 was tested for ex vivo inhibition of rat and nude mouse testes lyase. Male Copenhagen rats and male athymic nude mice obtained from Harlan Laboratories, Indianapolis, IN, were divided into groups of 5 to 6 based on weight. Average weight was 100-140 g each for rats and 18-35 g each for the mice. Prior to oral dosing, animals were fasted overnight. Test compound was prepared by micronization in a lecithin vehicle using a glass Teflon® pestle-type homogenizer. The compound was brought to volume using lecithin so as to administer 0.5 mL per 100 g animal. Rats and nude mice were given vehicle only (controls) or vehicle plus test compounds peros. Rats were also given the compound in lecithin or lecithin alone subcutaneously. Each group consisted of 5-6 animals. At a specified time after dosing, the animals were anesthetized with CO2 gas, sacrificed by cervical dislocation, testes were excised, capsules were removed, and the tissue was weighed. Two volumes (w/v) of 0.05 M potassium phosphate buffer, pH 7.2, was added to the rat testes tissue on ice, and 11 volumes (w/v) of the same buffer were added to the mouse testes. Tissue was then homogenized using 20 strokes with a Dounce homogenizer equipped with a tight pestle. Homogenized tissue was centrifuged at 800 x G then at 10,000 x G for 15 minutes each. Supernatant was decanted, reserved, and kept chilled on ice. Assays for lyase activity contained the same buffer and NADPH regenerating system described above and also contained […] of 10,000 x G supernatant which was diluted 3-fold resulting in a 5-fold dilution overall in the final assay volume. Substrate, 17α-hydroxyprogesterone plus 1,3-[^3H]-17α-hydroxyprogesterone (40-57 mCi/mmole; 0.18 µCi per assay) to yield a final concentration of 0.1 µM, (=Km) was added to the remaining assay components after a 5 minute equilibration a 20°C of the latter. The total assay volume was 200 µL. Activity was assayed for 20 seconds at 20°C. Assays were terminated, extracted and analyzed as described above except that carrier steroids were 17α-hydroxyprogesterone, androst-4-ene-dione, and testosterone. The organic phase containing the steroids was evaporated using nitrogen gas, the residues dissolved in 18% tetrahydrofuran (v/v) in hexane, and the steroid substrate, 17α-hydroxyprogesterone, and products (AED, TEST) were separated by HPLC on a Si60 (5 µm) column (250 x 4 mm) using 20% (v/v) tetrahydrofuran (THF) in hexane for 20 minutes then ramping to 60% THF (v/v) for 11 minutes. Activity of test compound was expressed as percent inhibition relative to the control and was the mean of each group of treated animals.

`CC12CCC3C(CC[C@H]4NC(=O)CCC34C)C1CC[C@@H]2OC1CC1` (stereo partly drawn) [MDL 103,432, 17β-Cyclopropyloxy-4-aza-5α-androstan-3-one]: the inhibition at 50 mg/kg is, setting by setting: (po, 50 mg/kg p.o., 4 hr after dosing) 66.4%; (po, 50 mg/kg p.o., 24 hr after dosing) 52.7%; (sc, 50 mg/kg s.c., 4 hr after dosing) 32.9%; (sc, 50 mg/kg s.c., 24 hr after dosing) 40.7%.
